Assays:
study subjects = assay: Treatment of study subjects with peroral daily doses according to intermittent administration schemes; assay type: in vivo, human; conditions: same doses and administration schemes; 50-150 mg perorally daily as a single dose
Protocol: (§1) Study subjects are treated with compound (76) with the following doses according to the following administration schemes: • in a 3 month trial, 75 mg or 150 mg compound (76) administered perorally daily as a single dose on day 2-7 of the menstrual cycle • in a 3 months trial, 75 mg, 100 mg or 150 mg compound (76) administered perorally daily as a single dose on day 2-7 of the menstrual cycle followed by a 3 months treatment-free period • in a 6 months trial, 75 mg or 150 mg compound (76) administered perorally daily as a single dose • 50 mg or 150 mg per compound (76) administered daily as a single dose over 42 days (6 weeks)
as §1, with “(68)” for “(76)”
as §1, with “36” for “(76)”
as §1, with “37” for “(76)”
as §1, with “52” for “(76)”
as §1, with “144” for “(76)”, “weeks) […]” for “weeks)”

[1] = in vivo; cited from earlier work
LHRH receptor = LHRH receptor (Homo sapiens, UniProt P30968); conditions: Cho N et al., J. Med. Chem. 1998; cited from earlier work
Sequence of LHRH receptor (P30968 whole entry): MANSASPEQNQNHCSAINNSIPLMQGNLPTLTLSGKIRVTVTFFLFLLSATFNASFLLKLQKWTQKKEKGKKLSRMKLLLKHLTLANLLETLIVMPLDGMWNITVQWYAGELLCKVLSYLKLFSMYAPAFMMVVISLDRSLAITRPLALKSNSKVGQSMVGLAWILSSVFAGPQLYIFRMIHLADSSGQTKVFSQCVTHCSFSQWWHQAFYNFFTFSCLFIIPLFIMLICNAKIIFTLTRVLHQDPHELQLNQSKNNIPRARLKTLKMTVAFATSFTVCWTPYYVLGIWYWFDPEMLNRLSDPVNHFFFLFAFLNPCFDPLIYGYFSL

In the case of CCC(C)[C@H](NC(=O)Cc1ccccc1F)C(=O)N[C@]1(C(=O)N[C@H](C(=O)NCN2CCOCC2)C(C)CC)CCc2[nH]c3c(C(F)(F)F)cccc3c2C1 (stereo partly drawn) [Compound 36, (R)-3-{(S)-2-[2-(2-Fluoro-phenyl)-acetylamino]-3-methyl-pentanoylamino}-8-trifluoromethyl-2,3,4,9-tetrahydro-1H-carbazole-3-carboxylic acid {(S)-2-methyl-1-[(morpholin-4-ylmethyl)-carbamoyl]-butyl}-amide], the “prevention of chemical (hormonal) castration” value (“prevention of chemical” below) (study subjects) is reported as “successfully prevented”.
For CCC(C)[C@H](NC(=O)Cc1ccccc1F)C(=O)N[C@]1(C(=O)N[C@H](C(=S)NCN2CCOCC2)C(C)CC)CCc2[nH]c3c(C(F)(F)F)cccc3c2C1 (stereo partly drawn) [Compound 37, (R)-3-{(S)-2-[2-(2-Fluoro-phenyl)-acetylamino]-3-methyl-pentanoylamino}-8-trifluoromethyl-2,3,4,9-tetrahydro-1H-carbazole-3-carboxylic acid {(S)-2-methyl-1-[(morpholin-4-ylmethyl)-thiocarbamoyl]-butyl}-amide], the “prevention of chemical” value (study subjects) was “successfully prevented”.
In the case of CCC(C)[C@H](NC(=O)Cc1ccccc1F)C(=O)N[C@]1(C(=O)N[C@H](C(=S)NCC2CCOCC2)C(C)CC)CCc2[nH]c3c(C(F)(F)F)cccc3c2C1 (stereo partly drawn) [Compound 52, (R)-3-{(S)-2-[2-(2-Fluoro-phenyl)-acetylamino]-3-methyl-pentanoylamino}-8-trifluoromethyl-2,3,4,9-tetrahydro-1H-carbazole-3-carboxylic acid {(S)-2-methyl-1-[(tetrahydro-pyran-4-ylmethyl)-thiocarbamoyl]-butyl}-amide], the “prevention of chemical” value (study subjects) is reported as “successfully prevented”.
With CCC(C)[C@H](NC(=O)Cc1ccccc1F)C(=O)N[C@]1(C(=O)N[C@H](C(=O)NNc2ccccc2)C(C)CC)CCc2[nH]c3c(C(F)(F)F)cccc3c2C1 (stereo partly drawn) [Compound 144, (R)-3-{(S)-2-[2-(2-Fluoro-phenyl)-acetylamino]-3-methyl-pentanoylamino}-8-trifluoromethyl-2,3,4,9-tetrahydro-1H-carbazole-3-carboxylic acid [(S)-2-methyl-1-(N′-phenyl-hydrazinocarbonyl)-butyl]-amide] the “prevention of chemical” value (study subjects) was “successfully prevented”.
For CC(C)OC(=O)c1cn(Cc2c(F)cccc2F)c2sc(-c3ccc(NC(=O)C(C)C)cc3)c(CN(C)Cc3ccccc3)c2c1=O [T-98475], the bioavailability [1] is given as “low” and the receptor affinity (LHRH receptor) is given as “high”.
With CCC(C)[C@H](NC(=O)Cc1ccccc1F)C(=O)N[C@]1(C(=O)N[C@H](C(N)=S)C(C)CC)CCc2[nH]c3c(Cl)cc(F)cc3c2C1 (some centres unmarked) [compound (68)] the “prevention of chemical” value (study subjects) was “successfully prevented”.
In the case of CCC(C)[C@H](NC(=O)Cc1ccccc1F)C(=O)N[C@]1(C(=O)N[C@H](C(N)=S)C(C)CC)CCc2[nH]c3c(C(F)(F)F)cccc3c2C1 (stereo partly drawn) [compound (76), (R)-3-{(S)-2-[2-(2-fluorophenyl)acetylamino]-3-methylpentanoylamino}-8-trifluoro-methyl-2,3,4,9-tetrahydro-1H-carbazole-3-carboxylic acid ((S)-2-methyl-1-thio-carbamoylbutyl)amide], the “prevention of chemical” value (study subjects) is reported as “successfully prevented”.
